Laboratory results reported in patent US20060135773A1, “Trisubstituted nitrogen modulators of tyrosine phosphatases” (priority 2004, published 2006).

biological target: T1, PTP-1B (Homo sapiens, UniProt P18031); assay: pNPP tyrosine phosphatase inhibition assay, PTP-1B; format: biochemical; conditions: pNPP assay, PTP-1B; read-out: Activity Class (IC50 ranges)
T1 construct: PTP-1B (purified, 1 mg/mL) as a 1:250 dilution
T1 sequence (P18031 1-321 limits assumed): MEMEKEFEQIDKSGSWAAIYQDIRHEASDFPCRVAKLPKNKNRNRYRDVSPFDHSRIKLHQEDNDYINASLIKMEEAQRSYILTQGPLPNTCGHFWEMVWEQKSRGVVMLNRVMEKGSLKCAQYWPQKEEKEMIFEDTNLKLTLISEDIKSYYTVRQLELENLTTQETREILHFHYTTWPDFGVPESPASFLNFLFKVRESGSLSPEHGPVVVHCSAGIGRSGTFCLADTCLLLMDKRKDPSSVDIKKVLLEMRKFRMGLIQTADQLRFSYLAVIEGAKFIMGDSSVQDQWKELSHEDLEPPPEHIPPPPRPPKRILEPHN
Experimental: The compounds provided herein are evaluated for biological activity as inhibitors of PTP-1B using, for example, a pNPP assay can be used to screen compounds for tyrosine phosphatase inhibitory activity as described in the Examples.
A 5× stock of pNPP (p-nitrophenol phosphate) substrate is prepared as 50 mM pNPP in assay buffer. Various tyrosine phosphatase solutions can be prepared as follows: • PTP-1B (purified, 1 mg/mL) as a 1:250 dilution (to a final concentration of 4:g/mL); • TC-PTP (NEB, 1000 units in 100:L) as a 1:50 dilution (to a final concentration of 2U/10:L (4:g/mL)); • CD45 (Calbiochem, 20:g, 400 units in 100:L) as a 1:50 dilution (to a final concentration of 0.8U/10:L (4:g/mL)); • LAR (NEB, 1000 units in 200:L) as a 1:75 dilution (to a final concentration of 0.7U/10:L (4:g/mL)); and • PTP-β (UBI, #14-350, 10,000 units, 40:g/571:L) as a 1:17.5 dilution (to a final concentration of 10U/10:L (4:g/mL));
The compound to be tested is prepared as 1:16.7 and 1:50 dilutions from stock in a total volume of […] DMSO to give final concentrations of 626 and 200:M. The reaction mixtures are prepared in a 96-well microtiter plate (on ice) as 55:L assay buffer, 5:L of the diluted compound (to a final concentration of 31.3 and 10:M), 20:L of the pNPP substrate solution (to a final concentration of 10 mM) and 20:L PTPase in assay buffer. The reactants are mixed well, the plate placed in a water bath at 30° C. and incubated for 10 minutes. The reaction is then terminated by adding 100:L of 2M K2CO3 per well, and the absorbance is measured at 405 nm by conventional means.
Unless otherwise indicated, this assay was used to determine activity for the selected compounds whose activity is provided in Table 1.

For `COc1ccccc1S(=O)(=O)N(Cc1ccc(-c2ccc(O)c(C(=O)O)c2)cc1)Cc1ccc(OCC(=O)O)c(Cl)c1` [Compound 222, 4′-{[(4-Carboxymethoxy-3-chloro-benzyl)-(2-methoxy-benzenesulfonyl)-amino]-methyl}-4-hydroxy-biphenyl-3-carboxylic acid], which IC50 is on record?
Its IC50 is > 25 µM.

With `CC(C)COC(=O)N(Cc1ccc(C(F)(F)P(=O)(O)O)cc1)Cc1ccc(C(F)(F)P(=O)(O)O)cc1` [Compound 61, {[4-({[4-(Difluoro-phosphono-methyl)-benzyl]-isobutoxycarbonyl-amino}-methyl)-phenyl]-difluoro-methyl}-phosphonic acid] as the molecule, how does the IC50 read?
Its IC50 is 2.5 to 25 µM.

How did the IC50 turn out when `COc1ccccc1S(=O)(=O)N(Cc1ccc(-c2ccc(S(C)(=O)=O)cc2)cc1)Cc1ccc(C(F)(F)P(=O)(O)O)c(Cl)c1` [Compound 147, [(2-Chloro-4-{[(4′-methanesulfonyl-biphenyl-4-ylmethyl)-(2-methoxy-benzenesulfonyl)-amino]-methyl}-phenyl)-difluoro-methyl]-phosphonic acid] was run?
The IC50 was 0.1 to 0.249 µM.

“[(2-Chloro-4-{[(2-chloro-4-fluoro-benzenesulfonyl)-(3′-cyano-biphenyl-4-ylmethyl)-amino]-methyl}-phenyl)-difluoro-methyl]-phosphonic acid [Compound 164]” was tested. Which IC50 did it give?
The IC50 was < 0.099 µM.

`COc1ccc(S(=O)(=O)N(Cc2ccc(C(F)(F)P(=O)(O)O)cc2)Cc2ccc(C(F)(F)P(=O)(O)O)cc2)cc1` [Compound 89, [(4-{[[4-(Difluoro-phosphono-methyl)-benzyl]-(4-methoxy-benzenesulfonyl)-amino]-methyl}-phenyl)-difluoro-methyl]-phosphonic acid] was tested. Which IC50 did it give?
The IC50 was 0.25 to 0.499 µM.

`COc1ccccc1S(=O)(=O)N(Cc1ccc(-c2cccc(C(=O)O)c2)cc1)Cc1ccc(C(F)(F)P(=O)(O)O)c(Cl)c1` [Compound 149, 4′-{[[3-Chloro-4-(difluoro-phosphono-methyl)-benzyl]-(2-methoxy-benzenesulfonyl)-amino]-methyl}-biphenyl-3-carboxylic acid] was tested. Which IC50 did it give?
The IC50 was < 0.099 µM.

For “3-[(4-{[(2-Methoxy-benzenesulfonyl)-naphthalen-1-ylmethyl-amino]-methyl}-phenyl)-oxalyl-amino]-butyric acid [Compound 225]”, which IC50 is on record?
Its IC50 is > 25 µM.

With `COc1ccccc1S(=O)(=O)N(Cc1ccc(C(F)(F)P(=O)(O)O)c(Cl)c1)Cc1ccccc1N1CCCCC1` [Compound 208, [(2-Chloro-4-{[(2-methoxy-benzenesulfonyl)-(2-piperidin-1-yl-benzyl)-amino]-methyl}-phenyl)-difluoro-methyl]-phosphonic acid] as the molecule, how does the IC50 read?
The IC50 was 0.25 to 0.499 µM.

How did the IC50 turn out when “[(4-{[(3′-Carbamoyl-biphenyl-2-ylmethyl)-(2-methoxy-benzenesulfonyl)-amino]-methyl}-2-chloro-phenyl)-difluoro-methyl]-phosphonic acid [Compound 187]” was run?
The IC50 was < 0.099 µM.

Which IC50 does the source give for `O=P(O)(O)C(F)(F)c1ccc(CN(Cc2ccc(-c3cccc(-c4nn[nH]n4)c3)cc2)S(=O)(=O)c2ccc(F)cc2Cl)cc1Cl` [Compound 169, {[2-Chloro-4-({(2-chloro-4-fluoro-benzenesulfonyl)-[3′-(2H-tetrazol-5-yl)-biphenyl-4-ylmethyl]-amino}-methyl)-phenyl]-difluoro-methyl}-phosphonic acid] here?
Its IC50 is < 0.099 µM.

With `COc1ccccc1S(=O)(=O)N(Cc1ccccc1)Cc1ccc(C(F)(F)P(=O)(O)O)c(Cl)c1` [Compound 170, [(4-{[Benzyl-(2-methoxy-benzenesulfonyl)-amino]-methyl}-2-chloro-phenyl)-difluoro-methyl]-phosphonic acid] as the molecule, how does the IC50 read?
Its IC50 is 0.25 to 0.499 µM.

How did the IC50 turn out when `COC(=O)c1cccc(-c2ccc(CN(Cc3ccc(C(F)(F)P(=O)(O)O)c(Cl)c3)S(=O)(=O)c3ccccc3OC)cc2)c1` [Compound 145, 4′-{[[3-Chloro-4-(difluoro-phosphono-methyl)-benzyl]-(2-methoxy-benzenesulfonyl)-amino]-methyl}-biphenyl-3-carboxylic acid methyl ester] was run?
Its IC50 is 0.25 to 0.499 µM.

For `COc1ccccc1S(=O)(=O)N(Cc1ccc(C(F)(F)P(=O)(O)O)c(Cl)c1)Cc1ccccc1-c1ccccc1` [Compound 168, [(4-{[Biphenyl-2-ylmethyl-(2-methoxy-benzenesulfonyl)-amino]-methyl}-2-chloro-phenyl)-difluoro-methyl]-phosphonic acid], which IC50 is on record?
The IC50 was 0.1 to 0.249 µM.

Which IC50 does the source give for `CS(=O)(=O)c1ccc(CN(Cc2ccc(C(F)(F)P(=O)(O)O)c(Br)c2)S(=O)(=O)c2ccccc2Cl)cc1` [Compound 102, [(2-Bromo-4-{[(2-chloro-benzenesulfonyl)-(4-methanesulfonyl-benzyl)-amino]-methyl}-phenyl)-difluoro-methyl]-phosphonic acid] here?
Its IC50 is 0.1 to 0.249 µM.

Which IC50 does the source give for “Methyl 5-{4-[({[4-(difluorophosphonomethyl)-3-chlorophenyl]methyl}[(2-methoxyphenyl)sulfonyl]amino)methyl]phenyl}-2-methoxybenzoate [Compound 205]” here?
The IC50 was 0.1 to 0.249 µM.

For “{[4-(difluorophosphonomethyl)-3-chlorophenyl]methyl}(cyclohexylmethyl)[(2-methoxyphenyl)sulfonyl]amine [Compound 203]”, which IC50 is on record?
Its IC50 is 0.25 to 0.499 µM.

With `COc1ccccc1S(=O)(=O)N(Cc1ccc(-c2ccc(C(=O)O)c(F)c2)cc1)Cc1ccc(C(F)(F)P(=O)(O)O)c(Cl)c1` [Compound 177, 4′-{[[3-Chloro-4-(difluoro-phosphono-methyl)-benzyl]-(2-methoxy-benzenesulfonyl)-amino]-methyl}-3-fluoro-biphenyl-4-carboxylic acid] as the molecule, how does the IC50 read?
The IC50 was < 0.099 µM.

`O=C(NS(=O)(=O)C(F)(F)F)c1ccc(CN(Cc2ccc(Cl)c(Cl)c2)S(=O)(=O)c2ccccc2Cl)cc1Br` [Compound 95, N-(3-Bromo-4-trifluoromethanesulfonylaminocarbonyl-benzyl)-2-chloro-N-(3,4-dichloro-benzyl)-benzenesulfonamide] was tested. Which IC50 did it give?
Its IC50 is > 25 µM.

How did the IC50 turn out when `COc1ccccc1S(=O)(=O)N(Cc1ccc(-c2ccc3c(c2)C(=O)OC3)cc1)Cc1ccc(C(F)(F)P(=O)(O)O)c(Cl)c1` [Compound 197, 6-{4-[({[4-(difluorophosphonomethyl)-3-chlorophenyl]methyl}[(2-methoxyphenyl)sulfonyl]amino)methyl]phenyl}-3-hydroisobenzofuran-1-one] was run?
The IC50 was 0.1 to 0.249 µM.

How did the IC50 turn out when `O=P(O)(O)C(F)(F)c1ccc(CN(Cc2ccc(Cl)c(Cl)c2)S(=O)(=O)c2ccccn2)cc1Br` [Compound 100, [(2-Bromo-4-{[(3,4-dichloro-benzyl)-(pyridine-2-sulfonyl)-amino]-methyl}-phenyl)-difluoro-methyl]-phosphonic acid] was run?
Its IC50 is 0.25 to 0.499 µM.

With `COc1ccccc1S(=O)(=O)N(Cc1ccc(C#N)cc1)Cc1ccc(Nc2c(O)c(=O)c2=O)cc1` [Compound 135, N-(4-Cyano-benzyl)-N-[4-(2-hydroxy-3,4-dioxo-cyclobut-1-enylamino)-benzyl]-2-methoxy-benzenesulfonamide] as the molecule, how does the IC50 read?
The IC50 was > 25 µM.

How did the IC50 turn out when `COC(=O)c1ccccc1S(=O)(=O)N(Cc1ccc(C(F)(F)P(=O)(O)O)cc1)Cc1ccc(C(F)(F)P(=O)(O)O)cc1` [Compound 92, 2-{Bis-[4-(difluoro-phosphono-methyl)-benzyl]-sulfamoyl}-benzoic acid methyl ester] was run?
The IC50 was 2.5 to 25 µM.

How did the IC50 turn out when `COc1ccccc1S(=O)(=O)N(Cc1ccc(-c2cccc(C#N)c2)cc1)Cc1ccc(C(F)(F)P(=O)(O)OC)c(Cl)c1` [Compound 165, [(2-Chloro-4-{[(3′-cyano-biphenyl-4-ylmethyl)-(2-methoxy-benzenesulfonyl)-amino]-methyl}-phenyl)-difluoro-methyl]-phosphonic acid monomethyl ester] was run?
Its IC50 is 2.5 to 25 µM.

`COc1ccccc1S(=O)(=O)N(Cc1cccc(-c2ccc(S(C)(=O)=O)cc2)c1)Cc1ccc(C(F)(F)P(=O)(O)O)c(Cl)c1` [Compound 143, [(2-Chloro-4-{[(4′-methanesulfonyl-biphenyl-3-ylmethyl)-(2-methoxy-benzenesulfonyl)-amino]-methyl}-phenyl)-difluoro-methyl]-phosphonic acid] was tested. Which IC50 did it give?
The IC50 was 0.25 to 0.499 µM.

How did the IC50 turn out when `COc1ccccc1S(=O)(=O)N(Cc1ccc(C#N)cc1)Cc1ccc(C=CC(=O)O)cc1` [Compound 124, 3-{4-[N-(4-cyanobenzyl)-N-(2-methoxy-benzenesulfonyl)aminomethyl]-phenyl}-acrylic acid] was run?
Its IC50 is > 25 µM.
